Assay results reported in patent US10478431B2, “Methods for treating a cytomegalovirus infection” (priority 2014, dated 2019).
Where a name gives a salt, the structure may show the parent alone.

Columns and labels:
[1] = test system: latent CMV in N-Tera2 cells; assay: N-Tera2 latency assay (reactivation of latent CMV); assay type: cell-based, human CMV (hCMV); details: FIG. 4 lower panel
Experimental: Reactivation of latent CMV in N-Tera2 cells was conducted as previously described in (Meier, 2001).

[2] = test system: ARPE-19 cells stably transduced with LM2ig; assay: Viability of ARPE-19 cells stably transduced with LM2ig; assay type: cell-based; details: FIG. 1, FIG. 2
Experimental: (§1) MRCS fibroblasts and life-extended human foreskin fibroblasts (HFFs) (Bresnahan and Shenk, 2000) were maintained in Dulbecco's Modified Eagle's Medium (DMEM) supplemented with 10% fetal bovine serum (FBS) and 50 U/ml penicillin-streptomycin at 37° C. and 5% CO2 in a humidified incubator. ARPE-19 cells were maintained in a 1:1 mixture of DMEM/F-12 (Mediatech Inc.) with 10% FBS (HyClone) and 50 U/ml Penicillin-Streptomycin (Mediatech Inc.). Cells were treated with a final concentration of 1 mM valproic acid (VPA) (Calbiochem™), resuspended in dimethylsulfoxide, for approximately 24 hours before imaging. Cells were treated with a final concentration of 400 nM TSA (Sigma-Aldrich) resuspended in dimethylsulfoxide, for 20-24 hours, a final concentration of 10 ng/mL TNF-α (Sigma-Aldrich) resuspended in phosphate-buffered saline (PBS), or a final concentration of 1 mM VPA (Calbiochem) for approximately 24 hours before imaging.
(§2) Standard lentiviral cloning was used to create minimal major immediate early (MIE) circuits (Dull et al., 1998). The minimal MIEP-IE2-GFP and MIEP-GFP circuits are driven by a full-length ˜2.5 kb MIE promoter-enhancer (MIEP) that spans the sequence from the MIEP modulator at the 5′ edge to the junction of immediate early (IE) exons 1 and 2. The MIEP was polymerase chain reaction (PCR)-cloned from AD169 into pLEIGW in place of the EF1a promoter. This full-length MIEP drives an IE2-IRES-GFP or mCherry-IRES-GFP cassette. IE2 was cloned from pRSV-IE86 (a gift from Jay Nelson). ARPE-19 cells were infected and fluorescence-activated cell sorter (FACS) sorted for green fluorescent protein (GFP) fluorescence to create stably expressing cell lines. Cells were treated with Trichostatin-A (TSA) for 17 hours, and GFP expression was quantified by flow cytometry. Live cells were gated by forward-versus-side scattering on a FacsCalibur™ cytometer (BD Biosciences) and mean fluorescence intensity recorded. At least 20,000 live cells were recorded for each experiment and data was analyzed in FlowJo™ (Treestar Inc.).

[3] = test system: IE2 negative feedback (MIEP-IE2-IRES-GFP construct, LM2ig); assay: IE2 negative feedback reporter: cells harboring LM2ig (MIEP-IE2-IRES-GFP), GFP by flow cytometry; assay type: cell-based, human CMV (hCMV); details: for quiescent MIEP-driven expression in a reporter cell line: 20 μM Hoechst 33258, FACS, FIG. 4 upper panel; for production of IE2, as measured by GFP expression (GFP mean fluorescence intensity; GFP-MFI): ARPE-19 cells stably transduced with LM2ig, FIG. 1, FIG. 2; for increase in the number of GFP-positive cells: Hoechst 33342 0.25 μM, VPA concentrations as in Teng et al. (2012), cells harboring LM2ig, FIG. 6
Experimental: as §1, §2
See WO 2014/127148 for descriptions of MIEP-IE2-reporter constructs. For example, LM2ig construct is depicted in FIG. 7 of WO 2014/127148.

[4] = test system: IE2 negative feedback (LM2ig "low" cells); assay: LM2ig "low" drug screen (4 day induction, high throughput flow cytometry); assay type: cell-based, human CMV (hCMV); details: induction period of 4 days, FIG. 9
Experimental: LM2ig “low” cells (˜0% GFP positive before induction) were treated with agents in duplicate for an induction period of 4 days. During this induction period, the cell culture medium was not changed; images were taken every day for 4 days. On the final day, high throughput flow cytometry was carried out on FACS IntelliCyt. Agents tested were: Hoechst 33258, Hoechst 33342, VPA, TSA, TNF-α, hexamethylene bisacetamide (HMBA), phorbol myristate acetate (PMA), neotroposin, distamycin, DAPI, gemcitabine, prednisolone, suberanilohydroxamic acid (SAHA), (2E)-N-hydroxy-3-[4-({[2-(2-methyl-1H-indol-3-yl)ethyl]amino}methyl)phenyl]acrylamide (panobinostat), thapsigargin, JQ1, prostratin, dimizane acetate, pentamidine, or bendamustine.

| Compound | reactivation of latent CMV [1] | cell viability / cytotoxicity [2] | quiescent MIEP-driven expression in a reporter cell line ([3]; ARPE-19 cells harboring LM2ig) | number of GFP-positive cells ([3]; ARPE-19 cells harboring LM2ig, Hoechst 33258 with or without VPA, FIG. 7) | mean fluorescence intensity (MFI) ([3]; ARPE-19 cells harboring LM2ig, Hoechst 33258 with or without VPA, FIG. 8) | production of IE2, as measured by GFP expression (GFP mean fluorescence intensity; GFP-MFI) [3] | increase in the number of GFP-positive cells [3] | breaking of the IE2 negative feedback (geometric mean of GFP) [4] | percent GFP-positive cells ([3]; 0.25 μM Hoechst 33342, 24 hours, cells with LM2ig construct, FIG. 5) | breaking of the IE2 negative feedback circuit ([3]; 24-28 hour exposure) | reactivation of the LM2ig minimal circuit ([3]; Hoechst 33258: after 24 hours) | breaking of the minimal LM2ig circuit ([3]; after 24 hours, alone) | breaking of the circuit and reactivation of the promoter from an off (silenced) state ([3]; long-term (e.g., 8-10 days) exposure) |
| --- | --- | --- | --- | --- | --- | --- | --- | --- | --- | --- | --- | --- | --- |
| CCCC(CCC)C(=O)O [VPA, valproic acid, reference compound] | not | not cytotoxic | not | induced an increase | did not substantially increase MFI | increased IE2 expression | 1.69 fold | – | – | – | – | – | – |
| CC(/C=C/C(=O)NO)=C\[C@@H](C)C(=O)c1ccc(N(C)C)cc1 [TSA, (R,2E,4E)-7-(4-(dimethylamino)phenyl)-N-hydroxy-4,6-dimethyl-7-oxohepta-2,4-dienamide, reference compound] | not | not cytotoxic | not | – | – | increased IE2 expression | – | – | – | – | – | – | – |
| CCOc1ccc(-c2nc3ccc(-c4nc5ccc(N6CCN(C)CC6)cc5[nH]4)cc3[nH]2)cc1 [Hoechst 33342, 2′-[4-ethoxyphenyl]-5-[4-methyl-1-piperazinyl]-2,5′-bi-1H-benzimidazole trihydrochloride trihydrate] | – | – | – | – | – | – | 3.49 fold | specifically break the IE2 negative feedback | increased | breaks the IE2 negative feedback circuit | strongly reactivates | does not break | breaks the circuit and reactivates the promoter |
